This passage reports IC50 and Ki results from ChEMBL document CHEMBL1770081, “Inhibition and structural reliability of prenylated flavones from the stem bark of Morus lhou on β-secretase (BACE-1)” (Bioorg Med Chem Lett, 2011).

SMILES strings stand for the structures.

The target of assay [1] is T1, Beta-secretase 1 (Homo sapiens, UniProt P56817). The assay can be described thus: Inhibition of human recombinant BACE-1 expressed in HEK293 cells assessed as inhibition of amyloid precursor protein cleavage into amyloid beta after 60 mins using Rh-EVNLDAEFK-Quencher as a substrate by FRET assay. The format is cell-based.
T1 sequence (P56817 whole entry): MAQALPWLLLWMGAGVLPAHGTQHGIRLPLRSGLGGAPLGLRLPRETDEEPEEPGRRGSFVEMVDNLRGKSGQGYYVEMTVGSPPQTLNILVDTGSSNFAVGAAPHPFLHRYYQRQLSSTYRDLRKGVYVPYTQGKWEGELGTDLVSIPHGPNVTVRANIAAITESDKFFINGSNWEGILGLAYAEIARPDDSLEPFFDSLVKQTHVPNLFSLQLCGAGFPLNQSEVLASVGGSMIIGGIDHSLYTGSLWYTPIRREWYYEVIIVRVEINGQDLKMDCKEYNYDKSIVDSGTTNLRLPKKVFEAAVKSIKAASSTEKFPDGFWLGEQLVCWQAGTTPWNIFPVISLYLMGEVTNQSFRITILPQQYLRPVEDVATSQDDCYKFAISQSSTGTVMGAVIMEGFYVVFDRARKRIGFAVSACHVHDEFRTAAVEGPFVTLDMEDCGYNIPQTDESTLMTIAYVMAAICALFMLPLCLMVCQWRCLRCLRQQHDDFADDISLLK
Assay [2] addresses T1, Beta-secretase 1. The assay can be described thus: Noncompetitive inhibition of human recombinant BACE-1 by Dixon plot analysis.

Turning to `CC1(C)C=Cc2c(cc(O)c3c(=O)c4c(oc23)-c2ccc(O)cc2OC(C(C)(C)O)C4)O1` (configuration not stated) [NEOCYCLOMORUSIN], in assay [1], the IC50 is 146 µM.
Still for that read-out and setting: next, `CC(C)=CC1Oc2cc(O)ccc2-c2oc3c4c(cc(O)c3c(=O)c21)OC(C)(C)C=C4` (configuration not stated) [CYCLOMORUSIN]: 101 µM.
The same measure, in the same setting: the same measure for `C/C(=C/Cc1c(-c2ccc(O)cc2O)oc2c3c(cc(O)c2c1=O)OC(C)(CO)C=C3)CO` (configuration not stated) [MORMIN]: 103 µM.
`O=c1cc(-c2ccc(O)cc2O)oc2cc(O)cc(O)c12` [NORARTOCARPETIN]: the Ki in assay [2] was 82.6 µM. For the same compound, the IC50 in assay [1] turned out to be 60.6 µM.
In the case of `CC(C)=CCc1c(-c2ccc(O)cc2O)oc2c(CC=C(C)C)c(O)cc(O)c2c1=O` [KUWANON C], the Ki in assay [2] was 2.2 µM. For the same compound, the IC50 in assay [1] is 3.4 µM.
Turning to `CC(C)(O)CCc1c(-c2ccc(O)cc2O)oc2c3c(cc(O)c2c1=O)OC(C)(C)C=C3` [MORUSINOL], in assay [1], the IC50 worked out at 136 µM.
In the case of `CC(C)=CCc1c(-c2ccc(O)cc2O)oc2c3c(cc(O)c2c1=O)OC(C)(C)C=C3` [MORUSIN], the Ki in assay [2] amounted to 64.1 µM. Moreover, the IC50 in assay [1] is 59.4 µM.
On the same counts, the results for `CC(C)=CCc1c(-c2ccc(O)c3c2OC(C)(C)C=C3)oc2cc(O)cc(O)c2c1=O` [KUWANON A] are 10.6 µM and 5.3 µM.
